PubChem BioAssay (NCI)
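Each compound was tested at five concentrations against cells in 96-well plates for 48 hours. TGI denotes the concentration required for complete inhibition of growth.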

Assays:
Assay in all cases: inhibition of tumour cell growth, NCI panel, 48 h
786-0 renal = system: 786-0 renal
A498 renal = system: A498 renal
A549 NSCLC = system: A549 NSCLC
ACHN renal = system: ACHN renal
BT-549 breast = system: BT-549 breast
CAKI-1 renal = system: CAKI-1 renal
CCRF-CEM leukemia = system: CCRF-CEM leukemia
COLO 205 colon = system: COLO 205 colon
DU-145 prostate = system: DU-145 prostate
EKVX NSCLC = system: EKVX NSCLC
HCC-2998 colon = system: HCC-2998 colon
HCT-116 colon = system: HCT-116 colon
HCT-15 colon = system: HCT-15 colon
HL-60(TB) leukemia = system: HL-60(TB) leukemia
HOP-62 NSCLC = system: HOP-62 NSCLC
HOP-92 NSCLC = system: HOP-92 NSCLC
HS 578T breast = system: HS 578T breast
HT29 colon = system: HT29 colon
IGROV1 ovarian = system: IGROV1 ovarian
K-562 leukemia = system: K-562 leukemia
KM12 colon = system: KM12 colon
LOX IMVI melanoma = system: LOX IMVI melanoma
M14 melanoma = system: M14 melanoma
MALME-3M melanoma = system: MALME-3M melanoma
MCF7 breast = system: MCF7 breast
MDA-MB-231 breast = system: MDA-MB-231 breast
MDA-MB-435 = system: MDA-MB-435
MDA-N = system: MDA-N
MOLT-4 leukemia = system: MOLT-4 leukemia
NCI-H226 lung = system: NCI-H226 lung
NCI-H23 lung = system: NCI-H23 lung
NCI-H460 lung = system: NCI-H460 lung
NCI-H522 lung = system: NCI-H522 lung
NCI/ADR-RES ovarian = system: NCI/ADR-RES ovarian
OVCAR-3 ovarian = system: OVCAR-3 ovarian
OVCAR-4 ovarian = system: OVCAR-4 ovarian
OVCAR-5 ovarian = system: OVCAR-5 ovarian
OVCAR-8 ovarian = system: OVCAR-8 ovarian
PC-3 prostate = system: PC-3 prostate
RPMI-8226 leukemia = system: RPMI-8226 leukemia
RXF 393 renal = system: RXF 393 renal
SF-268 CNS = system: SF-268 CNS
SF-295 CNS = system: SF-295 CNS
SF-539 CNS = system: SF-539 CNS
SK-MEL-2 melanoma = system: SK-MEL-2 melanoma
SK-MEL-28 melanoma = system: SK-MEL-28 melanoma
SK-MEL-5 melanoma = system: SK-MEL-5 melanoma
SK-OV-3 ovarian = system: SK-OV-3 ovarian
SN12C renal = system: SN12C renal
SNB-19 CNS = system: SNB-19 CNS
SW-620 colon = system: SW-620 colon
T-47D breast = system: T-47D breast
TK-10 renal = system: TK-10 renal
U251 CNS = system: U251 CNS
UACC-257 melanoma = system: UACC-257 melanoma
UACC-62 melanoma = system: UACC-62 melanoma
UO-31 renal = system: UO-31 renal
SNB-75 CNS = system: SNB-75 CNS
SR leukemia = system: SR leukemia

## NC(N)=NS(=O)(=O)c1ccc(Nc2c3ccccc3nc3c(C(=O)NNCCO)cccc23)cc1
786-0 renal
  TGI: > 1000 nM
A498 renal
  TGI: > 1000 nM
A549 NSCLC
  TGI: > 1000 nM
ACHN renal
  TGI: > 1000 nM
BT-549 breast
  TGI: 303 nM
CAKI-1 renal
  TGI: 912 nM
CCRF-CEM leukemia
  TGI: > 1000 nM
COLO 205 colon
  TGI: 351 nM
DU-145 prostate
  TGI: > 1000 nM
EKVX NSCLC
  TGI: > 1000 nM
HCC-2998 colon
  TGI: 462 nM
HCT-116 colon
  TGI: 354 nM
HCT-15 colon
  TGI: > 1000 nM
HL-60(TB) leukemia
  TGI: 671 nM
HOP-62 NSCLC
  TGI: 536 nM
HOP-92 NSCLC
  TGI: > 1000 nM
HS 578T breast
  TGI: > 1000 nM
HT29 colon
  TGI: 933 nM
IGROV1 ovarian
  TGI: 434 nM
K-562 leukemia
  TGI: 422 nM
KM12 colon
  TGI: 287 nM
LOX IMVI melanoma
  TGI: 375 nM
M14 melanoma
  TGI: 456 nM
MALME-3M melanoma
  TGI: 273 nM
MCF7 breast
  TGI: 241 nM
MDA-MB-231 breast
  TGI: 731 nM
MDA-MB-435
  TGI: 446 nM
MDA-N
  TGI: 504 nM
MOLT-4 leukemia
  TGI: > 1000 nM
NCI-H226 lung
  TGI: 420 nM
NCI-H23 lung
  TGI: 280 nM
NCI-H460 lung
  TGI: 341 nM
NCI-H522 lung
  TGI: 280 nM
NCI/ADR-RES ovarian
  TGI: > 1000 nM
OVCAR-3 ovarian
  TGI: 269 nM
OVCAR-4 ovarian
  TGI: > 1000 nM
OVCAR-5 ovarian
  TGI: > 1000 nM
OVCAR-8 ovarian
  TGI: > 1000 nM
PC-3 prostate
  TGI: > 1000 nM
RPMI-8226 leukemia
  TGI: 420 nM
RXF 393 renal
  TGI: 756 nM
SF-268 CNS
  TGI: 307 nM
SF-295 CNS
  TGI: > 1000 nM
SF-539 CNS
  TGI: > 1000 nM
SK-MEL-2 melanoma
  TGI: 311 nM
SK-MEL-28 melanoma
  TGI: > 1000 nM
SK-MEL-5 melanoma
  TGI: 278 nM
SK-OV-3 ovarian
  TGI: > 1000 nM
SN12C renal
  TGI: > 1000 nM
SNB-19 CNS
  TGI: > 1000 nM
SW-620 colon
  TGI: 377 nM
T-47D breast
  TGI: 296 nM
TK-10 renal
  TGI: > 1000 nM
U251 CNS
  TGI: 269 nM
UACC-257 melanoma
  TGI: > 1000 nM
UACC-62 melanoma
  TGI: > 1000 nM
UO-31 renal
  TGI: > 1000 nM

## C/C(=N\NC(=O)Nc1ccccc1Cl)c1ccc(O)cc1
786-0 renal
  TGI: > 100000 nM
A549 NSCLC
  TGI: > 100000 nM
ACHN renal
  TGI: > 100000 nM
BT-549 breast
  TGI: > 100000 nM
CAKI-1 renal
  TGI: > 100000 nM
CCRF-CEM leukemia
  TGI: > 100000 nM
COLO 205 colon
  TGI: > 100000 nM
DU-145 prostate
  TGI: > 100000 nM
EKVX NSCLC
  TGI: > 100000 nM
HCC-2998 colon
  TGI: > 100000 nM
HCT-116 colon
  TGI: > 100000 nM
HCT-15 colon
  TGI: > 100000 nM
HL-60(TB) leukemia
  TGI: > 100000 nM
HOP-92 NSCLC
  TGI: > 100000 nM
HS 578T breast
  TGI: > 100000 nM
HT29 colon
  TGI: > 100000 nM
IGROV1 ovarian
  TGI: > 100000 nM
K-562 leukemia
  TGI: > 100000 nM
KM12 colon
  TGI: > 100000 nM
LOX IMVI melanoma
  TGI: > 100000 nM
M14 melanoma
  TGI: > 100000 nM
MALME-3M melanoma
  TGI: > 100000 nM
MCF7 breast
  TGI: > 100000 nM
MDA-MB-231 breast
  TGI: > 100000 nM
MDA-MB-435
  TGI: > 100000 nM
MDA-N
  TGI: > 100000 nM
MOLT-4 leukemia
  TGI: > 100000 nM
NCI-H226 lung
  TGI: > 100000 nM
NCI-H23 lung
  TGI: > 100000 nM
NCI-H460 lung
  TGI: > 100000 nM
NCI-H522 lung
  TGI: > 100000 nM
NCI/ADR-RES ovarian
  TGI: > 100000 nM
OVCAR-3 ovarian
  TGI: > 100000 nM
OVCAR-4 ovarian
  TGI: > 100000 nM
OVCAR-5 ovarian
  TGI: > 100000 nM
OVCAR-8 ovarian
  TGI: > 100000 nM
PC-3 prostate
  TGI: > 100000 nM
RPMI-8226 leukemia
  TGI: > 100000 nM
SF-268 CNS
  TGI: > 100000 nM
SF-295 CNS
  TGI: > 100000 nM
SF-539 CNS
  TGI: > 100000 nM
SK-MEL-2 melanoma
  TGI: > 100000 nM
SK-MEL-28 melanoma
  TGI: > 100000 nM
SK-MEL-5 melanoma
  TGI: > 100000 nM
SK-OV-3 ovarian
  TGI: > 100000 nM
SN12C renal
  TGI: > 100000 nM
SNB-19 CNS
  TGI: > 100000 nM
SNB-75 CNS
  TGI: 75800 nM
SR leukemia
  TGI: > 100000 nM
SW-620 colon
  TGI: > 100000 nM
T-47D breast
  TGI: > 100000 nM
TK-10 renal
  TGI: > 100000 nM
U251 CNS
  TGI: > 100000 nM
UACC-257 melanoma
  TGI: > 100000 nM
UACC-62 melanoma
  TGI: > 100000 nM
UO-31 renal
  TGI: > 100000 nM
